According to patent US20250051686A1, “SURFACTANTS FOR CLEANING PRODUCTS” (AdvanSix Resins & Chemicals LLC, priority 2023, published 2025):

Key:
Assay in all cases: Antimicrobial minimum inhibitory concentration (MIC), serial dilution
S. mutans (25715) = type: cell-based, Streptococcus mutans; settings: 24 hours; serial dilution 1.7 fold; 400 ppm max (ADBAC control 20 ppm max)
From the text: (§1) The antimicrobial properties of surfactants can be examined using known methods and standard protocols, and various types of microorganisms as treatment targets. As a general matter, standard protocols can be developed to assess antimicrobial minimum inhibitory concentration (MIC) using serial dilution method, giving concentration-dependent microorganism growth inhibition measurements against gram positive (e.g., Streptococcus mutans, which is anaerobic, and Staphylococcus aureus, which is usually aerobic but can grow also anaerobically), gram negative (e.g., Escherichia coli, which is anaerobic, or Pseudomonas aeruginosa, which is aerobic). Bacteria are propagated overnight in a suitable growth medium, e.g., a Tryptic Soy Broth. Prior to testing, the concentrations of the test organisms are established using a spectrophotometer that can measure optical density. Those bacterial samples are then diluted to about 1E3 to 1E4 CFU/mL. […] Test measurements are conducted on replicate 96-well plates, and reported as the rounded whole number average of the determined MIC. […] Measurement variability is then reported based on the determined average in the form of MIC+/−.

E. coli (8739) = type: cell-based, Escherichia coli; settings: 24 hours; serial dilution 1.7 fold; 400 ppm max (ADBAC control 20 ppm max)
From the text: as §1

S. aureus (6538) = type: cell-based, Staphylococcus aureus; settings: 24 hours; serial dilution 1.7 fold; 400 ppm max (ADBAC control 20 ppm max)
From the text: as §1

P. aeruginosa (9027) = type: cell-based, Pseudomonas aeruginosa; settings: 24 hours; serial dilution 1.7 fold; 400 ppm max
From the text: as §1

MIC Result (S. mutans (25715)): 7 +/− 3 ppm
MIC Result (E. coli (8739)): 16 +/− 7 ppm
MIC Result (S. aureus (6538)): 7 +/− 3 ppm
MIC Result (P. aeruginosa (9027)): 48 +/− 20 ppm
SMILES: CCCCCCCCCCCCCC[N+](C)(C)Cc1ccccc1.[Cl-] [ADBAC control]
